Our source for the IC50 values is ChEMBL document CHEMBL1123635, “Angiotensin-converting enzyme inhibitors: perhydro-1,4-thiazepin-5-one derivatives” (J Med Chem, 1987).

This assay addresses T1, Angiotensin-converting enzyme (Oryctolagus cuniculus, UniProt P12822).
T1 sequence (P12822 whole entry): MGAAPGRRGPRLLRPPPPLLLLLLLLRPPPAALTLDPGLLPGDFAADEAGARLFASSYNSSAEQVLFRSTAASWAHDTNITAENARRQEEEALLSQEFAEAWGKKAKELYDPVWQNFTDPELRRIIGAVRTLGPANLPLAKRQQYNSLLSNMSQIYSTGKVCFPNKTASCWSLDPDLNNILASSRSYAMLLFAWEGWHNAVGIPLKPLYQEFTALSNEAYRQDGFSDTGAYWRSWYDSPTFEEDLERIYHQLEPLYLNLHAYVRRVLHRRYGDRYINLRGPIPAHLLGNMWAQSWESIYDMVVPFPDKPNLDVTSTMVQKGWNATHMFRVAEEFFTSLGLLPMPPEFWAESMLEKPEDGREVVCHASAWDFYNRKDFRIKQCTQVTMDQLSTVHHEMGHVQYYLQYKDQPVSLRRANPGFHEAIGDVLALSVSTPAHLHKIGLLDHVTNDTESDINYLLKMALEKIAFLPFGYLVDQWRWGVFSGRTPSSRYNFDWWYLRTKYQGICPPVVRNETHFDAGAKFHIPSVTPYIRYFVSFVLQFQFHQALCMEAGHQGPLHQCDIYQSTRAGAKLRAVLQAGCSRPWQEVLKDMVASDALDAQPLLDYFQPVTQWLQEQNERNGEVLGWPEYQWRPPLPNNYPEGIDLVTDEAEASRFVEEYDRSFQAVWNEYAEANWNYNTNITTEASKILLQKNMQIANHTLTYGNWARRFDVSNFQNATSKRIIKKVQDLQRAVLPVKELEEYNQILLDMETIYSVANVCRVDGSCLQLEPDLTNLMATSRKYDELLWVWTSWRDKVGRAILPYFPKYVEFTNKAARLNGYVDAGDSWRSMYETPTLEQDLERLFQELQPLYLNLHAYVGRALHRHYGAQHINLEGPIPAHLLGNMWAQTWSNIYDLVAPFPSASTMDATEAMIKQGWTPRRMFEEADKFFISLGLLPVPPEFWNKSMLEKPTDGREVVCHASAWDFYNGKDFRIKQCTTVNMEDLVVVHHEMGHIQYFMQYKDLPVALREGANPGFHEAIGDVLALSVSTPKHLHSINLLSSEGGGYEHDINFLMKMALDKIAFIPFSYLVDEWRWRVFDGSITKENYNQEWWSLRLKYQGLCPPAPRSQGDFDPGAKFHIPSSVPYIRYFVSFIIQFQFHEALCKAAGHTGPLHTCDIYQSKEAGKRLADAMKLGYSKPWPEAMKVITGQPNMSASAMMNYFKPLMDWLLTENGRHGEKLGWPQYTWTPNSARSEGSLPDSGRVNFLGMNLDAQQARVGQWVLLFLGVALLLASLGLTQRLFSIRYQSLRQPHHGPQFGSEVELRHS
Put plainly: Inhibitory activity against rabbit lung Angiotensin I converting enzyme with 5 mM hippuryl-histidyl-leucine as substrate.

In the case of `O=C(O)CN1C(=O)[C@@H](N[C@@H](CCc2ccccc2)C(=O)O)CSC[C@H]1c1ccccc1`, half-maximal inhibition (IC50) required 3.4 nM.
For `O=C(O)CN1C[C@H](c2ccccc2)SC[C@H](N[C@@H](CCc2ccccc2)C(=O)O)C1=O` the value was 35.5 nM; for `O=C(O)CN1C[C@@H](c2ccsc2)SC[C@H](N[C@@H](CCc2ccccc2)C(=O)O)C1=O`, 4.1 nM; for `O=C(O)CN1C[C@H](c2ccsc2)SC[C@H](N[C@@H](CCc2ccccc2)C(=O)O)C1=O`, 86.9 nM.
Consider `O=C(O)CN1C(=O)[C@@H](N[C@@H](CCc2ccccc2)C(=O)O)CSCC1c1cccs1` (some centres undefined), for which it took 2.8 nM to reach half-maximal inhibition (IC50).
For `O=C(O)CN1C[C@H](c2cccs2)SC[C@H](N[C@@H](CCc2ccccc2)C(=O)O)C1=O` the value was 64.7 nM.
With `O=C(O)CN1C[C@@H](c2cccs2)SC[C@H](N[C@@H](CCc2ccccc2)C(=O)O)C1=O` [TEMOCAPRILAT], the midpoint of inhibition, the IC50, lay at 3.6 nM.
`O=C(O)CN1C(=O)[C@@H](N[C@@H](CCc2ccccc2)C(=O)O)CSC[C@@H]1c1ccccc1`: the IC50 – broadly, the concentration at which inhibition is half-maximal – turned out to be 78.2 nM.
As to `O=C(O)CN1C[C@@H](c2ccccc2)SC[C@H](N[C@@H](CCc2ccccc2)C(=O)O)C1=O`, the IC50 is 3.7 nM. Compared with the last compound, the IC50 is about 21-fold lower.
